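Dose response: 5 concentrations. Exposure: 48 h. Format: 96-well plates. Endpoint: linear interpolation; highest concentration if not reached. GI50 = concentration required for 50% inhibition of growth.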 Active and inactive are the calls of the source. No stated cut-off is given here; in the data, active = GI50 up to about 1.1 µM and inactive = higher. Numbered stars: 1 amine (or outer) side, 2 acyl side, 3 side chain; on linkers, the order of the positions; unused ones are H or OH. Square brackets hold non-standard residues; d marks the D form. Peptide text beside a SMILES is read from it. X55 = CC[C@H](C)[C@H](OC(=O)[C@@H](C)[C@@H](CC)N[*:1])C(=O)[*:2]; X31 = C[C@H](N[*:1])C(=O)C(C)(C)C(=O)[*:2]; NMeY = CN[C@@H](Cc1ccc(O)cc1)C(=O)O; NMeL = CN[C@@H](CC(C)C)C(=O)O; NMeV = CN[C@H](C(=O)O)C(C)C
How the values were obtained:
Experiment in all cases: inhibition of tumour cell growth, NCI panel, 48 h
HL-60 = tested on: HL-60
TK-10 = tested on: TK-10
SN12C = tested on: SN12C
UACC-62 = tested on: UACC-62
SNB-19 = tested on: SNB-19
SF-295 = tested on: SF-295
OVCAR-3 = tested on: OVCAR-3
SR = tested on: SR
UO-31 = tested on: UO-31
NCI-H522 = tested on: NCI-H522
EKVX = tested on: EKVX
UACC-257 = tested on: UACC-257
M14 = tested on: M14
KM12 = tested on: KM12
SK-MEL-5 = tested on: SK-MEL-5
HCC 2998 = tested on: HCC 2998
NCI-H23 = tested on: NCI-H23
SF-268 = tested on: SF-268
NCI/ADR-RES = tested on: NCI/ADR-RES
SF-539 = tested on: SF-539

Compound	GI50 (HL-60)	GI50 (TK-10)	GI50 (SN12C)	GI50 (UACC-62)	GI50 (SNB-19)	GI50 (SF-295)	GI50 (OVCAR-3)	GI50 (SR)	GI50 (UO-31)	GI50 (NCI-H522)	GI50 (EKVX)	GI50 (UACC-257)	GI50 (M14)	GI50 (KM12)	GI50 (SK-MEL-5)	GI50 (HCC 2998)	GI50 (NCI-H23)	GI50 (SF-268)	GI50 (NCI/ADR-RES)	GI50 (SF-539)
O=c1cc(-c2ccc(O)c(O)c2)oc2cc(O[C@H]3O[C@H](CO)[C@@H](O)[C@H](O)[C@H]3O)cc(O)c12	37.7 µM (inactive)	> 100 µM (inactive)	> 100 µM (inactive)	93.1 µM (inactive)	75.9 µM (inactive)	> 100 µM (inactive)	81.7 µM (inactive)	5.69 µM (inactive)	11.2 µM (inactive)	41.3 µM (inactive)	56.6 µM (inactive)	> 100 µM (inactive)	> 100 µM (inactive)	38 µM (inactive)	70.1 µM (inactive)	> 100 µM (inactive)	> 100 µM (inactive)	62.1 µM (inactive)	> 100 µM (inactive)	> 100 µM (inactive)
CC[C@H](C)[C@@H]1OC(=O)[C@@H](C)[C@@H](CC)NC(=O)[C@H](C)NC(=O)C(C)(C)C(=O)[C@H](C)NC(=O)[C@H](Cc2ccc(OC)cc2)N(C)C(=O)[C@H](C(C)C)N(C)C(=O)CNC(=O)[C@H](CC(C)C)N(C)C(=O)CNC1=O [DOLASTATIN 11] (cyclo(A[X55]G[NMeL]G[NMeV][NMeY](Me)[X31]))	0.0117 µM (active)	0.0713 µM (active)	0.194 µM (active)	0.0893 µM (active)	0.185 µM (active)	0.0838 µM (active)	0.0413 µM (active)	0.0355 µM (active)	0.169 µM (active)	0.00607 µM (active)	0.102 µM (active)	0.0817 µM (active)	< 0.0148 µM (active)	0.4 µM (active)	0.0247 µM (active)	0.0188 µM (active)	0.071 µM (active)	0.082 µM (active)	0.802 µM (active)	0.0122 µM (active)
c1ccc2c(c1)Sc1ccccc1N2CC1CN2CCC1CC2 (stereo not given) [MEQUITAZINE]	3.57 µM (inactive)	6.41 µM (inactive)	11.3 µM (inactive)	3.13 µM (inactive)	9.23 µM (inactive)	15.7 µM (inactive)	3.97 µM (inactive)	2.58 µM (inactive)	7.06 µM (inactive)	4.82 µM (inactive)	11.4 µM (inactive)	1.88 µM (inactive)	1.87 µM (inactive)	5.08 µM (inactive)	3.2 µM (inactive)	1.29 µM (inactive)	13 µM (inactive)	7.36 µM (inactive)	11.1 µM (inactive)	8.32 µM (inactive)
